Reference: patent US20240417410A1, “TRICYCLIC COMPOUNDS FOR THE TREATMENT OF CANCER” (Hoffmann-La Roche Inc., priority 2023, published 2024)
Like-named read-outs stand apart in the source and are kept apart here.

Experiments:
Format in all cases: cell-based
[1] = test system: panel of 119 human cancer cell lines with RAS mutations or amplifications; experiment: Cell proliferation analysis, panel of 119 human cancer cell lines; conditions: RAS addicted cell panels (n=119), read-out: median IC50
Method: The objective of this study was to evaluate the extent and degree to which Example 24 or A122 inhibits cell proliferation in a panel of 119 human cancer cell lines with RAS mutations or amplifications across various histological subtypes.
(§1) On Day-1, cells were plated in 384-well round-bottom ultra-low adhesion plates (cat. Corning 3830, with cell density adjusted according to Table 3. The assay plate was then centrifuged at 1000 rpm for 1 minute to ensure even distribution of cells. The plate was incubated at 37° C. in a 5% CO2 atmosphere (It is worth noting that for SW1271 cell plate, it needs to be incubated in an incubator without additional CO2).
(§2) On Day 0, Example 24 or A122 was added to each well using a Tecan HP D300E dispenser, with a 3-fold dilution across 9 doses. The final concentration of DMSO was normalized to 0.2%. The assay plate was then centrifuged at 1000 rpm for 1 minute and incubated for 7 days.
On Day 7, CellTiter-Glo (CTG) 3D reagent (Promega G9683) was dispensed into each well of a 384-well plate using a multi-drop dispenser (Thermo Scientific 66413). […]
For data analysis, the XL-fit software (Supplier: ID Business Solutions Ltd., Software version: XL fit 5.0) was utilized. The percentage of inhibition was calculated using the formula: Inhibition %=(Max-Sample value)/(Max-Min)×100. […]

[2] = test system: A549; experiment: Cell proliferation, CTG 3D, 7 d; conditions: Homo sapiens
Method: as §1, §2
(§3) On Day 7, CellTiter-Glo (CTG) 3D reagent (Promega G9683) was dispensed into each well of a 384-well plate using a multi-drop dispenser (Thermo Scientific 66413). A liquid handling automation workstation (Bravo with a 384-well head) was used to mix the CTG reagents. Plates were left on a shaker for 30 minutes at 450 rpm, shielded from light.
(§4) For data analysis, the XL-fit software (Supplier: ID Business Solutions Ltd., Software version: XL fit 5.0) was utilized. The percentage of inhibition was calculated using the formula: Inhibition %=(Max-Sample value)/(Max-Min)×100. Curve fitting was performed as follows: For complete dose-response curves, the relative IC50 was reported from the fit. For incomplete curves, if minimal inhibition was greater than 50%, an IC50 less than the lowest compound concentration was reported. If minimal inhibition was between 20% and 50%, the bottom was locked at 0% and the IC50 was reported. If maximal inhibition was less than 50%, an IC50 greater than the highest compound concentration was reported.

[3] = test system: AsPc-1; experiment: Cell proliferation, CTG 3D, 7 d; conditions: Homo sapiens, ASPC1; AsPc-1, KRAS (G12D)
Method: as §1, §2, §3, §4

[4] = test system: Capan-2; experiment: Cell proliferation, CTG 3D, 7 d; conditions: Homo sapiens
Method: as §1, §2, §3, §4

[5] = test system: GAK; experiment: Cell proliferation, CTG 3D, 7 d; conditions: Homo sapiens
Method: as §1, §2, §3, §4

[6] = test system: HCT-116; experiment: Cell proliferation, CTG 3D, 7 d; conditions: Homo sapiens
Method: as §1, §2, §3, §4

[7] = test system: HuT 78; experiment: Cell proliferation, CTG 3D, 7 d; conditions: Homo sapiens, HuT78
Method: as §1, §2, §3, §4

[8] = test system: LCLC-97TM1; experiment: Cell proliferation, CTG 3D, 7 d; conditions: Homo sapiens; LCLC-97TM1, KRAS (G12V)
Method: as §1, §2, §3, §4

[9] = test system: MDA-MB-134-VI; experiment: Cell proliferation, CTG 3D, 7 d; conditions: Homo sapiens
Method: as §1, §2, §3, §4

[10] = test system: MDA-MB-231; experiment: Cell proliferation, CTG 3D, 7 d; conditions: Homo sapiens
Method: as §1, §2, §3, §4

[11] = test system: MM.1S; experiment: Cell proliferation, CTG 3D, 7 d; conditions: Homo sapiens, MM1.S
Method: as §1, §2, §3, §4

[12] = test system: MOLP8; experiment: Cell proliferation, CTG 3D, 7 d; conditions: Homo sapiens, MOLP-8
Method: as §1, §2, §3, §4

[13] = test system: NCI-H1792; experiment: Cell proliferation, CTG 3D, 7 d; conditions: Homo sapiens; NCI-H1792, KRAS (G12C)
Method: as §1, §2, §3, §4

[14] = test system: NCI-H1876; experiment: Cell proliferation, CTG 3D, 7 d; conditions: Homo sapiens
Method: as §1, §2, §3, §4

[15] = test system: NCI-H1944; experiment: Cell proliferation, CTG 3D, 7 d; conditions: Homo sapiens
Method: as §1, §2, §3, §4

[16] = test system: NCI-H2135; experiment: Cell proliferation, CTG 3D, 7 d; conditions: Homo sapiens
Method: as §1, §2, §3, §4

[17] = test system: NCI-H23; experiment: Cell proliferation, CTG 3D, 7 d; conditions: Homo sapiens; NCI-H23, KRAS (G12C)
Method: as §1, §2, §3, §4

[18] = test system: NCI-H838; experiment: Cell proliferation, CTG 3D, 7 d; conditions: Homo sapiens; NCI-H838, KRAS (WT ampl)
Method: as §1, §2, §3, §4

[19] = test system: PK-59; experiment: Cell proliferation, CTG 3D, 7 d; conditions: Homo sapiens; PK-59, KRAS (G12D)
Method: as §1, §2, §3, §4

[20] = test system: RPMI8226; experiment: Cell proliferation, CTG 3D, 7 d; conditions: Homo sapiens, RPMI-8226
Method: as §1, §2, §3, §4

[21] = test system: SNU-387; experiment: Cell proliferation, CTG 3D, 7 d; conditions: Homo sapiens
Method: as §1, §2, §3, §4

[22] = test system: SNU-668; experiment: Cell proliferation, CTG 3D, 7 d; conditions: Homo sapiens, SNU668
Method: as §1, §2, §3, §4

[23] = test system: THP-1; experiment: Cell proliferation, CTG 3D, 7 d; conditions: Homo sapiens; THP-1, NRAS (p.G12D)
Method: as §1, §2, §3, §4

[24] = test system: TOV-21G; experiment: Cell proliferation, CTG 3D, 7 d; conditions: Homo sapiens, TOV21G
Method: as §1, §2, §3, §4

[25] = test system: TYK-nu; experiment: Cell proliferation, CTG 3D, 7 d; conditions: Homo sapiens
Method: as §1, §2, §3, §4

## CO[C@@H](C)c1ncc(N2CCN(C)CC2)cc1-c1c2c3cc(cc4c3n1CCC4)-c1csc(n1)C[C@H](NC(=O)[C@H]1[C@H](C)[C@@H]1C)C(=O)N1CCC[C@H](N1)C(=O)OCC(C)(C)C2 (atropisomer, axis not shown; (M)) [Example 24, (1r,2R,3S)-N-[(7S,13S)-(20M)-20-[2-[(1S)-1-methoxyethyl]-5-(4-methylpiperazin-1-yl)-3-pyridyl]-17,17-dimethyl-8,14-dioxo-15-oxa-4-thia-9,21,30,31-tetrazahexacyclo[23.3.1.1^2,5.1^9,13.0^19,27.0^21,26]hentriaconta-1 (28),2,5 (31), 19,25 (29),26-hexaen-7-yl]-2,3-dimethyl-cyclopropanecarboxamide]
[1]
  IC50: 0.95 nM
[2]; A549, KRAS (G12S), read-out: IC50
  IC50: 0.72 nM
[3]
  IC50: 0.65 nM
[4]; Capan-2
  IC50: 0.23 nM
[5]; GAK, NRAS (p.Q61L), read-out: IC50
  IC50: 10 nM
[6]; HCT-116, KRAS (G13D), read-out: IC50
  IC50: 1.9 nM
[7]; HuT 78, NRAS (p.Q61K), read-out: IC50
  IC50: 0.3 nM
[8]
  IC50: 0.092 nM
[9]; KRAS (G12R), read-out: IC50
  IC50: 1.5 nM
[10]; MDA-MB-231, KRAS (G13D), read-out: IC50
  IC50: 27 nM
[11]; MM.1S, KRAS (G12A), read-out: IC50
  IC50: 0.3 nM
[12]; MOLP8, NRAS (p.Q61L), read-out: IC50
  IC50: 11 nM
[13]
  IC50: 0.21 nM
[14]; NCI-H1876, NRAS (p.Q61K), read-out: IC50
  IC50: 3.1 nM
[15]; NCI-H1944, KRAS (G13D), read-out: IC50
  IC50: 1.6 nM
[16]; NCI-H2135, NRAS (p.Q61K), read-out: IC50
  IC50: 0.71 nM
[17]
  IC50: 0.17 nM
[18]
  IC50: 100 nM
[19]
  IC50: 0.44 nM
[20]; RPMI8226, KRAS (G12A), read-out: IC50
  IC50: 0.38 nM
[21]; SNU-387, NRAS (p.Q61K), read-out: IC50
  IC50: 0.43 nM
[22]; SNU-668, KRAS (Q61K), read-out: IC50
  IC50: 2 nM
[23]
  IC50: 0.26 nM
[24]; TOV-21G, KRAS (G13C), read-out: IC50
  IC50: 4.9 nM
[25]; TYK-nu, NRAS (p.G12D and p.Q61K), read-out: IC50
  IC50: 0.34 nM

## CCn1c(-c2cc(N3CCN(C)CC3)cnc2[C@H](C)OC)c2c3cc(ccc31)-c1csc(n1)C[C@H](NC(=O)[C@H]1C[C@@H]1C)C(=O)N1CCC[C@H](N1)C(=O)OCC(C)(C)O2 [Example A122, reference compound]
[1]
  IC50: 1.9 nM
[2]; A549
  IC50: 1.1 nM
[3]
  IC50: 0.55 nM
[4]; Capan-2, KRAS (G12V), read-out: IC50
  IC50: 0.59 nM
[5]
  IC50: 19 nM
[6]; HCT-116
  IC50: 1.9 nM
[7]
  IC50: 0.55 nM
[8]
  IC50: 0.17 nM
[9]
  IC50: 2.6 nM
[10]; MDA-MB-231
  IC50: 20 nM
[11]
  IC50: 0.55 nM
[12]
  IC50: 22 nM
[13]
  IC50: 0.43 nM
[14]
  IC50: 3.6 nM
[15]; NCI-H1944
  IC50: 1.7 nM
[16]
  IC50: 1.2 nM
[17]
  IC50: 0.33 nM
[18]
  IC50: 100 nM
[19]
  IC50: 0.62 nM
[20]
  IC50: 0.52 nM
[21]; SNU-387
  IC50: 1.1 nM
[22]
  IC50: 4.3 nM
[23]
  IC50: 0.18 nM
[24]
  IC50: 33 nM
[25]
  IC50: 0.68 nM
